Reference: patent publication US20170081338A1, “SUBSTITUTED HETEROARYL COMPOUNDS AND METHODS OF USE” (Sunshine Lake Pharma Co., Ltd., priority 2015, published 2017)

Molecular target: T1, JAK2 (h) (Homo sapiens, UniProt O60674)
T1 construct: purchased Millipore UK Ltd (contract assay service)
Experiment: JAK2 (h) kinase assay
Type: biochemical
Experimental: Kinase assays can be performed by measurement of incorporation of γ-^33P ATP into immobilized myelin basic protein (MBP). High binding white 384 well plates (Greiner) are coated with MBP (Sigma #M-1891) by incubation of 60 μL/well of 20 μg/mL MBP in Tris-buffered saline (TBS; 50 mM Tris pH 8.0, 138 mM NaCl, 2.7 mM KCl) for 24 h at 4° C. Plates are washed 3× with 100 μL TBS. Kinase reactions are carried out in a total volume of 34 μL in kinase buffer (according to the need to make, for example, 5 mM Hepes pH 7.6, 15 mM NaCl, 0.01% bovine gamma globulin (Sigma #1-5506), 10 mM MgCl2, 1 mM DTT, 0.02% TritonX-100). Compound dilutions are performed in DMSO and added to assay wells to a final DMSO concentration of 1%. Each data point is measured in duplicate, and at least two duplicate assays are performed for each individual compound determination. […] A mixture of unlabeled ATP and γ-^33P ATP is added to start the reaction (2×10^6 cpm of γ-^33P ATP per well (3000 Ci/mmole) and 10 μM unlabeled ATP, typically. The reactions are carried out for 1 h at room temperature with shaking. Plates are washed 7× with TBS, followed by the addition of 50 µL/well scintillation fluid (Wallac). Plates are read using a Wallac Trilux counter. This is only one format of such assays; various other formats are possible, as known to one skilled in the art. […]

T1 sequence (O60674 whole entry): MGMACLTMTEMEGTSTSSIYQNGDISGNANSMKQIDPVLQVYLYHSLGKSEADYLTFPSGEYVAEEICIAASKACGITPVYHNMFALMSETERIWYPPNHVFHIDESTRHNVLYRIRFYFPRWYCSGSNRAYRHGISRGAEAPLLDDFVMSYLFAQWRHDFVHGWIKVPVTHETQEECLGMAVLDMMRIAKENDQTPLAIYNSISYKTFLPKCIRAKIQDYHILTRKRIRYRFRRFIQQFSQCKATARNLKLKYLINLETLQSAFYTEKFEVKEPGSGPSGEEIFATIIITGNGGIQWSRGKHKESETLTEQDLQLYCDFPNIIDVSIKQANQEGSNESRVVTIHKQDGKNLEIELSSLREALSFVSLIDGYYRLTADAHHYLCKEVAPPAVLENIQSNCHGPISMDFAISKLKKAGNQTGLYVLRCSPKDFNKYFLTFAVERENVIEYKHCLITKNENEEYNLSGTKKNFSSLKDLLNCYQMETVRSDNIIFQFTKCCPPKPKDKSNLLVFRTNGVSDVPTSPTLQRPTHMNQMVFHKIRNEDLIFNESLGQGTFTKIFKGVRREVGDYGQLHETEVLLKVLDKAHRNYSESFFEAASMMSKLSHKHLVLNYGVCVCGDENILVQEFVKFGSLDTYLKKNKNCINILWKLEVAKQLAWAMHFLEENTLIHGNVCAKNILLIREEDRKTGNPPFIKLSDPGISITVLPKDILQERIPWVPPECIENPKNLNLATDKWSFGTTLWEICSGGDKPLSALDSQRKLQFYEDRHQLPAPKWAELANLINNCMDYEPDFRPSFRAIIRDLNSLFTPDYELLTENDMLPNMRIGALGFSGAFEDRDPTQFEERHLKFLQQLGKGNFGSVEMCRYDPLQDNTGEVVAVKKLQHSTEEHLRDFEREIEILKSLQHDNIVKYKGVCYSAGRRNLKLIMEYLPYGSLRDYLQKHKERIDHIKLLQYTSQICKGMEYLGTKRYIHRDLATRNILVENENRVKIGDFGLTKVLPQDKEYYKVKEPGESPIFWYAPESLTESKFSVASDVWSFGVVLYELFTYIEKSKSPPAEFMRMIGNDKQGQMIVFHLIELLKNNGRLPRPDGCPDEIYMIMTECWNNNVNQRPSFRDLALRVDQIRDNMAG

## CC(C)CS(=O)(=O)N[C@H]1COC2C1OC[C@H]2Nc1nc(Nc2cnn(C)c2)ncc1Cl (stereo partly drawn) [Ex. 2, N-((3S,6R)-6-((5-chloro-2-((1-methyl-1H-pyrazol-4-yl)amino)pyrimidin-4-yl)amino)hexahydrofuro[3,2-b]furan-3-yl)-2-methylpropane-1-sulfonamide]
  IC50: 350 nM
